{"source": "patent US12409237B1", "about": "“Methods and models for assessing efficacy of immunotherapies” (The Jackson Laboratory, priority 2016, dated 2025)", "test_system": "human BL0293 tumor cells (bladder cancer cells)", "assay": "Tumor growth of BL0293 patient-derived xenograft in NSG-Quad mice engrafted with human CD34+ hematopoietic stem cells", "format": "in vivo, mouse", "conditions": "NSG-Quad mice with human CD34+ HSC and BL0293 xenografts; intravenous 10 mg/kg on day 0, then 5 mg/kg on days 5, 10 and 15; versus vehicle; tumors 60-100 mm^3 at grouping", "protocol": "NSG-Quad mice were irradiated with 50 cGy whole body radiation. NSG-SGM3 mice were irradiated with 50 cGy whole body radiation and NSG mice were irradiated with 100 cGy whole body radiation as controls. Each mouse received about 100,000 human CD34^+ hematopoietic stem cells from the same donor by injection. Blood cells obtained by retro-orbital bleeding at 10 weeks post-engraftment were assessed by flow cytometry for mouse CD45, human CD45, human CD20, human CD3, human CD33, human CD14, and human CD56 (FIG. 1A-F). Live cells were gated using LIVE/DEAD® (ThermFisher Scientific).\nBR1126, MDA-MB-231, TM1149, and BL0293 tumor cells were separately implanted subcutaneously into NSG-Quad and NSG-SGM3 mice at 7-12 weeks post-CD34^+-cell engraftment (see Example 1). Tumor sizes were measured with calipers.\nNSG-Quad mice xenografted with human BL0293 tumor cells (bladder cancer cells) were grouped when tumors reached 60-100 mm^3, and mice were then administered intravenous pembrolizumab at 10 mg/kg on day 0 followed by 5 mg/kg on days 5, 10, and 15. Tumor sizes were measured by calipers.\nFIG. 5 is a graph depicting tumor volumes for NSG-Quad mice that have human CD34^+ hematopoietic stem cell xenografts and BL0293 patient-derived xenografts and receiving either pembrolizumab (Keytruda®) or vehicle. Each data point corresponds to a single mouse at a specific time-point. […]", "note": "Entries after “also recorded” stand apart in the source; their conditions may differ.", "data": [{"substance": "pembrolizumab", "values": [{"measurement": "tumor growth (tumor volume measured by calipers)", "result": "reduced tumor growth rates; also recorded: slower tumor growth on average"}]}]}
